The values below come from patent US20220265582A1, “EFFECTS OF MESCALINE AND OF MESCALINE ANALOGS (SCALINES) TO ASSIST PSYCHOTHERAPY” (Universitätsspital Basel, priority 2021, published 2022).

Data set [1] concerns healthy subjects. Description: 5-Dimensional Altered States of Consciousness (5D-ASC) scale, Clinical Study I. In kind it is in vivo, human. Conditions: 6 subjects. The procedure: 5-Dimensional Altered States of Consciousness (5D-ASC): The 5-dimensional Altered States of Consciousness (5D-ASC) Scale is a visual analog scale consisting of 94 items (117, 118). The instrument contains five main scales (FIG. 6A) and 11 newer subscales (FIG. 6B) assessing mood, anxiety, derealization, depersonalization, changes in perception, auditory alterations, and reduced vigilance. The scale is well-validated (118). The 5D-ASC scale was administered once at the end of the session and subjects were instructed to retrospectively rate peak alterations that have been experienced during the study session. Each item of the scale is scored on a 0-100 mm VAS. The attribution of the individual items to the subscales of the 5D-ASC was analyzed according to (117, 118) and as shown in FIGS. 6A-6B. The scale was be administered once at the end of each test session.

The test system of data set [2] is healthy subjects. In words: Adverse effects, list of complaints (LC), Clinical Study I. In kind it is in vivo, human. Conditions: for mean total LC score: six human volunteers, oral mescaline 300 mg, psilocybin 20 mg, LSD 100 μg, LC 12 hours after administration. The procedure: Adverse effects (list of complaints): The list of complaints (LC) consists of 66 items offering a global score measuring physical and general discomfort (119). The LC list was administered 12 hours after administration of the drug with reference to complaints throughout the entire session.

The conditions of data set [3]: LSD vs. MDMA (45); cited from earlier work.
The target of data set [4] is 5-HT2A receptor (Homo sapiens, UniProt P28223). Conditions: FIG. 2 (62); cited from earlier work.
Data set [5] deals with healthy subjects. Conditions: 100 μg dose; cited from earlier work.
The test system of data set [6] is healthy subjects. Description: Visual Analog Scales (VAS) of acute subjective effects, Clinical Study I. Particulars: for duration of subjective effects (VAS any drug effect): mescaline 300 mg, psilocybin 20 mg, LSD 100 μg oral.
Data set [7] deals with healthy male subjects. Particulars: cited from earlier work; for psychoactive or cardiostimulant properties of metabolites administered to humans: in vivo.
In data set [8] the target is 5-HT transporter (SERT) (Homo sapiens, UniProt P31645). Conditions: cited from earlier work.
The test system of data set [9] is healthy subjects. Description: Autonomic measures (blood pressure, heart rate, body temperature), Clinical Study I. In kind it is in vivo, human. The procedure:
Autonomic measures: Blood pressure, heart rate, and body temperature were recorded at baseline and repeatedly throughout the session. Blood pressure (systolic and diastolic) and heart rate were measured with an automatic oscillometric device. Body temperature was measured with an ear thermometer.

Data set [10] has as its system healthy subjects. Conditions: mescaline sulfate 500 mg, 12 subjects, MDE, 14 subjects, cited from earlier work.
Data set [11] concerns the target D2 receptors (Homo sapiens, UniProt P14416). Conditions: FIG. 3; cited from earlier work.
The subject of data set [12] is humans. Conditions: cited from earlier work.
Data set [13] has as its system rodent. Particulars: rodent tests (49); cited from earlier work.
Setting [14] is: six healthy volunteers, doses used.
[15] abbreviates: 500 mg mescaline hydrochloride orally.

Read-outs that look alike come from different tables or passages of the source.

Chain of 5-HT transporter (SERT) (P31645 whole entry): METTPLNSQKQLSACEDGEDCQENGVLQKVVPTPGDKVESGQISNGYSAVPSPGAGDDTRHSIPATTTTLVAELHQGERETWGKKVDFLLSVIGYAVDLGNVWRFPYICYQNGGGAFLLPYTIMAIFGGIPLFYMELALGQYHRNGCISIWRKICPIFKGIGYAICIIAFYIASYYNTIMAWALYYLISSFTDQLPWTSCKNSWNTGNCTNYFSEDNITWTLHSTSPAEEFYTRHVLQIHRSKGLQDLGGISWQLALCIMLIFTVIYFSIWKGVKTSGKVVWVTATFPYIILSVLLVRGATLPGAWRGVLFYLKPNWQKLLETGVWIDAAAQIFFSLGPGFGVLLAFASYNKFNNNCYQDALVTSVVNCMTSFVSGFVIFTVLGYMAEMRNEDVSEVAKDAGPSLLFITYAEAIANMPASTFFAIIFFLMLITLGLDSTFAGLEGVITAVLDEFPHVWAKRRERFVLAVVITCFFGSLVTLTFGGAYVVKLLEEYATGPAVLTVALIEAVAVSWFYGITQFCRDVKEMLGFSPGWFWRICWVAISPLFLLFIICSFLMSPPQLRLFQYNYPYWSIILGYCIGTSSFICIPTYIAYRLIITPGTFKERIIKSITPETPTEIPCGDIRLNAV
Chain of 5-HT2A receptor (P28223 whole entry): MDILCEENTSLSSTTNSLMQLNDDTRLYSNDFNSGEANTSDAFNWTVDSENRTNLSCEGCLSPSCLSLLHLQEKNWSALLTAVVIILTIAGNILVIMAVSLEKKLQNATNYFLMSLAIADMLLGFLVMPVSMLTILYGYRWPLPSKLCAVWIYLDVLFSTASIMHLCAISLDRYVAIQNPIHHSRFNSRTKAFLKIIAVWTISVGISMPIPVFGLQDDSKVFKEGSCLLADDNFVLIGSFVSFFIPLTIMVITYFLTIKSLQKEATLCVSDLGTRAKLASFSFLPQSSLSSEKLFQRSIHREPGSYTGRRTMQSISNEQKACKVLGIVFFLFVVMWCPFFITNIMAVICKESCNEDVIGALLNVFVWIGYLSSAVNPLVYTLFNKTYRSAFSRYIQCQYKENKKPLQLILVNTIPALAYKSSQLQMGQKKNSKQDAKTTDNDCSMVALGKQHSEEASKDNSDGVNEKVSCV
Chain of D2 receptors (P14416 whole entry): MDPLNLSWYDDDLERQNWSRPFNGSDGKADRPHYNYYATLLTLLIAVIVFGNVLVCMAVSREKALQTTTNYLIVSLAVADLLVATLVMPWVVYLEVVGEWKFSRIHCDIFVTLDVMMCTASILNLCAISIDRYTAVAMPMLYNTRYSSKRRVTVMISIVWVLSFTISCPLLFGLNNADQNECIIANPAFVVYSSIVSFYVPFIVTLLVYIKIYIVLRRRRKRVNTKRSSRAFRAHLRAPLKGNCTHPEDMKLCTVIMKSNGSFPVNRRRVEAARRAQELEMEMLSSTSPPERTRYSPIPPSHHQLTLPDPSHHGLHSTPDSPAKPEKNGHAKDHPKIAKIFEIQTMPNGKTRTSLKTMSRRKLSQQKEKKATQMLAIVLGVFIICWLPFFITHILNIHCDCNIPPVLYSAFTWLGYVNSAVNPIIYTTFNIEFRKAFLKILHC

For the compound `CCN(CC)C(=O)[C@@H]1C=C2c3cccc4[nH]cc(c34)C[C@H]2N(C)C1` [LSD, lysergic acid diethylamide, reference compound], the “overall peak effects (total 3D-OAV scores)” value in [1] (LSD 100 μg, psilocybin 20 mg) was “equally strong overall peak effects”. The “mean total LC score” value in data set [2] was 5.4. Further, in [3], the AED score is reported as 26, the OB score is 43 and the VR score is given as 50. Further, the “binding potency at the 5-HT2A receptor (rank)” value in [4] is given as “binds most potently”. Also, in data set [5], the duration of effects is 8 h and the “time of peak responses” value was 3 h. For the same compound, in data set [6] (doses used), the “area under the effect-time curve, visual and auditory perception (VAS)” value is given as “greater”; the “bad drug effect (VAS) peaks” value was “peaks lower for LSD and mescaline compared with psilocybin”; the “ego-dissolution (VAS)” value is on record as “mostly increased”; the “stimulated (VAS)” value is on record as “greater stimulation than mescaline”. Also, in data set [6] (doses used), the “synesthesia, "sounds influenced what I saw" (VAS)” value is reported as “highest ratings”; the “visual and auditory perception change (VAS), ratings/peak” value is “highest ratings”. Moreover, the “area under the effect over time curve (VAS any/good drug effect)” value in [6] (setting [14]) is listed as “greater”. In addition, in data set [6] (six healthy volunteers), the “duration of subjective effects (VAS any drug effect)” value is “lasted similarly long”.
For `CNC(C)Cc1ccc2c(c1)OCO2` (stereo not drawn) [MDMA, 3,4-methylendioxymethamphetamine], in data set [3], the AED score is listed as 1.3, the OB score is 9.3 and the VR score is listed as 4.1.
For the compound `COc1cc(CCNC(C)=O)cc(O)c1OC` [N-acetyl-(3,4,dimethoxy-5-hydroxyphenylethalymine], the “share excreted in urine as this species after mescaline” value (“share excreted in urine” for short) in data set [7] (setting [15]) is given as 5%.
`COc1cc(CCNC(C)=O)cc(OC)c1OC` [NAM, N-acetyl-mescaline]: in [7] (setting [15]), the “share excreted in urine” value is reported as 0.1%. The “psychoactive or cardiostimulant properties of metabolites administered to humans” value in data set [7] is on record as “not to have psychoactive or cardiostimulant properties”.
On to `CN(C)CCc1c[nH]c2cccc(O)c12` [Psilocin, reference compound], for which, in data set [8], the “interaction with the SERT” value is on record as “inhibits the 5-HT transporter (SERT)”.
Turning to `COc1cc(CC(=O)O)cc(OC)c1OC` [TMPA, 3,4,5-trimethoxyphenylacetic acid], in data set [7] (setting [15]), the “share excreted in urine” value is listed as 27-30%. For the same compound, the “psychoactive or cardiostimulant properties of metabolites administered to humans” value in data set [7] is reported as “not to have psychoactive or cardiostimulant properties”.
For `COc1cc(CCN)cc(OC)c1OC` [mescaline, 3,4,5-trimethoxyphenethylamine], the “total alterations of consciousness (total 3D-OAV score) relative to LSD (100 μg) or psilocybin (20 mg)” value in data set [1] (mescaline 300 mg oral, peak responses rated 12 hours after administration) was “approximately 50%”. Moreover, the “increases in blood pressure, heart rate and body temperature after mescaline” value in data set [9] (6 subjects, mescaline 300 mg) is “tended to be attenuated compared with both psilocybin and LSD”. Also, in [9] (Example 1), the thermogenic effects result was “reduced thermogenic effects of mescaline compared to psilocybin”. The “effects on heart rate” value in data set [9] (doses used, not statistically confirmed) is “tended to be lower than those of psilocybin”. The “overall tolerability of acute administration” value in data set [2] (doses used) is given as “overall similar to that of LSD or psilocybin”. For the same compound, the “mean total LC score” value in data set [2] was 8.8. In addition, in data set [10], the “average APZ score AIA (anxious ego-dissolution)” value was 7.1 and the “average APZ score VUS (visionary restructuralization)” value is on record as 7.4. In [10] (indirect comparison), the “average APZ score OSE (oceanic boundlessness)” value is 6.2. Moreover, the “affinity for D2 receptors” value in data set [11] is listed as “no affinity”. Besides, the “interaction with the SERT” value in data set [8] is reported as “do not interact with the SERT”. In addition, in [12] ((51, 86)), the “dose to induce a full psychedelic experience” value is listed as “about 300 mg”. Further, in data set [12] ((86)), the “potency relative to LSD (times less potent)” value is reported as 1000-3000 times and the “potency relative to psilocybin (times less potent)” value is listed as “around 30 times”. Also, the subjective effect duration in [12] (moderate dose (86)) was 10 to 12 h. Moreover, in data set [7] (setting [15]), the “duration of subjective effects” value is 12 to 14 h, the “onset of subjective effects” value was at most 30 min, the “share excreted in urine” value is recorded as 55-60% and the “time of peak subjective effects” value was 4 h. The “onset of subjective effects” value in data set [7] (500 mg mescaline hydrochloride orally, listed as mescaline hydrochloride) is “approximately 30 min”. Moreover, in data set [7] (500 mg orally), the “delay of the peak subjective response compared with the plasma peak” value was “about 2 hours”, the “radioactivity administered excreted within 24 hours” value is on record as 87% and the “radioactivity administered excreted within 48 h” value was 92%. In [7] (mescaline hydrochloride 500 mg orally, radioactivity ingested as mescaline), the half-life result is reported as “approximately six”. In data set [13], the abuse-related rewarding effects result was “no abuse-related rewarding effects”. In data set [6] (doses used), the “area under the effect-time curve, visual and auditory perception (VAS)” value is given as “similar”; the “bad drug effect (VAS) peaks” value was “peaks lower for LSD and mescaline compared with psilocybin”; the “changed time perception (VAS)” value is “trends toward lower changes”; the “ego-dissolution (VAS)” value is recorded as “lower ratings”. For the same compound, in data set [6] (doses used), the “nausea (VAS)” value is listed as “lowest nausea ratings”; the “openness (VAS)” value was “smallest peak effect but a longer lasting effect compared with psilocybin”; the “synesthesia, "sounds influenced what I saw" (VAS)” value is on record as “lower ratings”; the “visual and auditory perception change (VAS), ratings/peak” value was “lower peak effects than both psilocybin and LSD”. In [6] (first hours), the “talkative (VAS)” value is recorded as “longest effect”. For the same compound, in data set [6] (setting [14]), the “area under the effect over time curve (VAS any/good drug effect)” value is given as “similar”; the “peak effect (VAS any/good drug effect)” value was “lower than those of psilocybin and LSD”; the “time to peak of subjective effects (VAS any/good drug effect)” value is “took longer to peak compared to those of psilocybin and LSD”. The “duration of subjective effects (VAS any drug effect)” value in data set [6] (six healthy volunteers) is recorded as “lasted similarly long”.
Turning to `CN(C)CCc1c[nH]c2cccc(OP(=O)(O)O)c12` [psilocybin, reference compound], the “increase in blood pressure and body temperature compared with the other active substances” value in [9] (6 subjects) is “more pronounced and shorter-lasting increase”. The “mean total LC score” value in [2] amounted to 6.8. Further, the “nausea (VAS)” value in data set [6] (doses used) is reported as “highest”.
